Laboratory results reported in patent US20250129073A1, “INHIBITOR OF RECEPTOR-INTERACTING PROTEIN KINASE 1, AND PREPARATION METHOD AND USE THEREFOR” (CHINA PHARMACEUTICAL UNIVERSITY, priority 2021, published 2025).

biological target: RIPK1 kinase (Homo sapiens (Human), UniProt Q13546); assay: RIPK1 kinase inhibitory assay (ADP-Glo); assay type: biochemical; conditions: 10 μM compound; read-out: Inhibition rate of RIPK1 at 10 μM (%)
Experimental: Materials and Instruments: ADP-Glo kinase kit (purchased from Promega), RIPK1 GST-Th-Tag (purchased from Bps Bioscience), MBP substrate (purchased from Millipore), nunc 384-well plate, ATP fluorescence analyzer Paradigm detection platform (purchased from Beckman coulter)
The compounds were diluted in DMSO and configured into a solution with a final concentration of 10 mM; Dilute RIP1 kinase from 140 ng/μL to 20 ng/μL for use. Dilute 10 mM of ATP to 100 μM for later use; Dilute 5 mg/mL of MBP to 1 mg/mL for later use. Appropriate embodiments were added into the well of the 384-well plate, 10 μl […] ATP was evenly mixed with 1 μl 1 mg/mL MB P, the mixed solution was added to the well, and 2 μL […] RIP1 kinase was added to the hole, and then incubated at room temperature for 1 h. Subsequently, 5 μL ADP-Glo reagent was added to each well and incubated at room temperature for 40 min. Then, 10 μL ADP-Glo detection reagent was added to each well and incubated at room temperature for 30 min. Finally, the RLU value (relative light unit) of each well was measured by ATP fluorometer, and each sample was repeated twice. Inhibition rate=(RLU value of blank group−RLU value of drug administration group)/RLU value of blank group×100%.

Chain of RIPK1 kinase (Q13546 whole entry): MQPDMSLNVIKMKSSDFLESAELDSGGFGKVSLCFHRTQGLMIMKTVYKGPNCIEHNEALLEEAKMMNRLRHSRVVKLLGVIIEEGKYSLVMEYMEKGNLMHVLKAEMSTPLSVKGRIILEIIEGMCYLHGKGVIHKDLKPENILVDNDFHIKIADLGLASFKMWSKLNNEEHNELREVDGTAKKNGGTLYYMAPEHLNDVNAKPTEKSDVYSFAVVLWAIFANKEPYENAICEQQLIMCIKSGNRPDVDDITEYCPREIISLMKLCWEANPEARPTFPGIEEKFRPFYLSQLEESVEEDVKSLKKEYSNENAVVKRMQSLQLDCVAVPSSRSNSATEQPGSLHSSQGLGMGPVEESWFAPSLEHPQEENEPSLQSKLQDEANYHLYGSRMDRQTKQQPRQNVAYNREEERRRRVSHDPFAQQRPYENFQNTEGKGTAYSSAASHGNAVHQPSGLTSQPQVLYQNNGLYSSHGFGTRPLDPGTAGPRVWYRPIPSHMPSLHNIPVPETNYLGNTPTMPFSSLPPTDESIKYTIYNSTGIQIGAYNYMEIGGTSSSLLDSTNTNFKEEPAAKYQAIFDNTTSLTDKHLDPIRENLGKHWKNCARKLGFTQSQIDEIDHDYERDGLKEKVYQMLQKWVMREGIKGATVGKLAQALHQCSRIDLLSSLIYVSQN

inhibition at 10 µM [%] | SMILES
8 | CN1C(=O)N(Cc2ccccc2)C(=O)C12CCN(C(=O)c1ccccc1)CC2 [Compound 2, 8-benzoyl-3-benzyl-1-methyl-1,3,8-triazaspiro [4.5] decane-2,4-dione]
11 | CN1C(=O)N(Cc2cccc(Cl)c2)C(=O)C12CCN(C(=O)c1ccccc1)CC2 [Compound 3, 8-benzoyl-3-(3-chlorobenzyl)-1-methyl-1,3,8-triazaspiro[4.5]decane-2,4-dione]
16 | CN1C(=O)N(Cc2ccc(C(F)(F)F)cc2)C(=O)C12CCN(C(=O)c1ccccc1)CC2 [Compound 4, 8-benzoyl-1-methyl-3-(4-(trifluoromethyl)benzyl)-1,3,8-triazaspiro decane-2,4-dione]
20 | CN1C(=O)N(Cc2cccnc2)C(=O)C12CCN(C(=O)c1ccccc1)CC2 [Compound 5, 8-benzoyl-1-methyl-3-(pyridin-3-ylmethyl)-1,3,8-triazaspiro [4.5]decane-2,4-dione]
4 | CN1C(=O)N(Cc2ccccn2)C(=O)C12CCN(C(=O)c1ccccc1)CC2 [Compound 6, 8-benzoyl-1-methyl-3-(pyridin-2-ylmethyl)-1,3,8-triazaspiro [4.5]decane-2,4-dione]
34 | CN1C(=O)N(CC2CCCCC2)C(=O)C12CCN(C(=O)c1ccccc1)CC2 [Compound 7, 8-benzoyl-3-(cyclohexylmethyl)-1-methyl-1,3,8-triazaspiro [4.5]decane-2,4-dione]
22 | CN1C(=O)N(CC2CCCC2)C(=O)C12CCN(C(=O)c1ccccc1)CC2 [Compound 8, 8-benzoyl-3-(cyclopentylmethyl)-1-methyl-1,3,8-triazaspiro [4.5]decane-2,4-dione]
> 50 | O=C(c1ccccc1)N1CCC2(CC1)CCN(Cc1ccccc1)C2=O [Compound 9, 8-benzoyl-2-benzyl-2,8-diazaspiro[4.5]decan-1-one]
> 50 | O=C(c1ccccc1)N1CCC2(CC1)CCN(Cc1cccc(Cl)c1)C2=O [Compound 10, 8-benzoyl-2-(3-chlorobenzyl)-2,8-diazaspiro[4.5]decan-1-one]
> 50 | O=C(c1ccccc1)N1CCC2(CC1)CCN(CC1CCCCC1)C2=O [Compound 11, 8-benzoyl-2-(cyclohexylmethyl)-2,8-diazaspiro[4.5]decan-1-one]
> 50 | O=C(c1ccccc1)N1CCC2(CC1)CCN(CC1CCCC1)C2=O [Compound 12, 8-benzoyl-2-(cyclopentylmethyl)-2,8-diazaspiro[4.5]decan-1-one]
> 50 | O=C(c1ccccc1)N1CCC2(CC1)CCN(Cc1cccnc1)C2=O [Compound 13, 8-benzoyl-2-(pyridin-3-ylmethyl)-2,8-diazaspiro[4.5]decan-1-one]
> 50 | O=C(c1ccccc1)N1CCC2(CC1)CCN(Cc1ccccn1)C2=O [Compound 14, 8-benzoyl-2-(pyridin-2-ylmethyl)-2,8-diazaspiro[4.5]decan-1-one]
> 50 | O=C(c1ccccc1)N1CCC2(CC1)CCN(Cc1ccc(C(F)(F)F)cc1)C2=O [Compound 15, 8-benzoyl-2-(4-(trifluoromethyl)benzyl)-2,8-diazaspiro[4.5]decan-1-one]
> 50 | O=C(c1ccncc1)N1CCC2(CC1)CCN(Cc1ccccc1)C2=O [Compound 16, 2-benzyl-8-isonicotinoyl-2,8-diazaspiro[4.5]decan-1-one]
45 | O=C(c1cccnc1)N1CCC2(CC1)CCN(Cc1ccccc1)C2=O [Compound 17, 2-benzyl-8-nicotinoyl-2,8-diazaspiro[4.5]decan-1-one]
> 50 | O=C(c1cnco1)N1CCC2(CC1)CCN(Cc1ccccc1)C2=O [Compound 18, 2-benzyl-8-(oxazole-5-carbonyl)-2,8-diazaspiro[4.5]decan-1-one]
16 | O=C1N(Cc2ccccc2)CCC12CCN(Cc1ccccc1)CC2 [Compound 19, 2,8-dibenzyl-2,8-diazaspiro[4.5]decan-1-one]
21 | O=C1N(Cc2ccccc2)CCC12CCN(S(=O)(=O)c1ccccc1)CC2 [Compound 20, 2-benzyl-8-(phenylsulfonyl)-2,8-diazaspiro [4.5]decan-1-one]
8 | CC(C)N1CCC2(CCN(Cc3ccccc3)C2=O)CC1 [Compound 22, 2-benzyl-8-isopropyl-2,8-diazaspiro[4.5]decan-1-one]
> 50 | O=C(c1c[nH]c2ccccc12)N1CCC2(CC1)CCN(Cc1ccccc1)C2=O [Compound 23, 2-benzyl-8-(1H-indole-3-carbonyl)-2,8-diazaspiro[4.5]decan-1-one]

inhibition at 10 µM [%] | SMILES
> 50 | O=C(c1ccc2[nH]ccc2c1)N1CCC2(CC1)CCN(Cc1ccccc1)C2=O [Compound 24, 2-benzyl-8-(1H-indole-5-carbonyl)-2,8-diazaspiro[4.5]decan-1-one]
> 50 | O=C(c1ccc2cc[nH]c2c1)N1CCC2(CC1)CCN(Cc1ccccc1)C2=O [Compound 25, 2-benzyl-8-(1H-indole-6-carbonyl)-2,8-diazaspiro[4.5]decan-1-one]
14 | Cn1cnc2ccc(C(=O)N3CCC4(CC3)CCN(Cc3ccccc3)C4=O)cc21 [Compound 26, 2-benzyl-8-(1-methyl-1H-benzo[d]imidazole-6-carbonyl)-2,8-diazaspiro[4.5]decan-1-one]
46 | Cn1cc(C(=O)N2CCC3(CC2)CCN(Cc2ccccc2)C3=O)c2ccccc21 [Compound 27, 2-benzyl-8-(1-methyl-1H-indole-3-carbonyl)-2,8-diazaspiro[4.5]decan-1-one]
3 | Cn1ccc2cc(C(=O)N3CCC4(CC3)CCN(Cc3ccccc3)C4=O)ccc21 [Compound 28, 2-benzyl-8-(1-methyl-1H-indole-5-carbonyl)-2,8-diazaspiro[4.5]decan-1-one]
> 50 | Cn1ccc2ccc(C(=O)N3CCC4(CC3)CCN(Cc3ccccc3)C4=O)cc21 [Compound 29, 2-benzyl-8-(1-methyl-1H-indole-6-carbonyl)-2,8-diazaspiro[4.5]decan-1-one]
> 50 | O=C(c1cnco1)N1CCC2(CC1)CCN(Cc1ccccc1F)C2=O [Compound 30, 2-(2-fluorobenzyl)-8-(oxazole-5-carbonyl)-2,8-diazaspiro[4.5]decan-1-one]
> 50 | O=C(c1ccccc1)N1CCC2(CC1)CCN(Cc1cccc(F)c1)C2=O [Compound 32, 8-benzoyl-2-(3-fluorobenzyl)-2,8-diazaspiro[4.5]decan-1-one]
> 50 | O=C(c1ccccc1)N1CCC2(CC1)CCN(Cc1ccc(F)cc1)C2=O [Compound 33, 8-benzoyl-2-(4-fluorobenzyl)-2,8-diazaspiro[4.5]decan-1-one]
> 50 | O=C(c1ccccc1)N1CCC2(CC1)CCN(Cc1cc(F)cc(F)c1)C2=O [Compound 35, 8-benzoyl-2-(3,5-difluorobenzyl)-2,8-diazaspiro[4.5]decan-1-one]
> 50 | O=C1N(Cc2ccccc2)CCC12CCN(c1ncccn1)CC2 [Compound 36, 2-benzyl-8-(pyrimidin-2-yl)-2,8-diazaspiro[4.5]decan-1-one]
> 50 | O=C(c1ccccc1)N1CCC2(CC1)CCN(Cc1c(F)cccc1F)C2=O [Compound 37, 8-benzoyl-2-(2,6-difluorobenzyl)-2,8-diazaspiro[4.5]decan-1-one]
> 50 | O=C(c1ccccc1)N1CCC2(CC1)CCN(Cc1ccc(F)c(F)c1F)C2=O [Compound 38, 8-benzoyl-2-(2,3,4-trifluorobenzyl)-2,8-diazaspiro[4.5]decan-1-one]
> 50 | O=C(c1ccccc1)N1CCC2(CC1)CCN(Cc1ccc(Cl)cc1F)C2=O [Compound 39, 8-benzoyl-2-(4-chloro-2-fluorobenzyl)-2,8-diazaspiro[4.5]decan-1-one]
> 50 | O=C(c1ccccc1)N1CCC2(CC1)CCN(Cc1cccc(F)c1F)C2=O [Compound 40, 8-benzoyl-2-(2,3-difluorobenzyl)-2,8-diazaspiro[4.5]decan-1-one]
> 50 | O=C(c1ccccc1)N1CCC2(CC1)CCN(Cc1cc(F)c(F)cc1F)C2=O [Compound 41, 8-benzoyl-2-(2,4,5-trifluorobenzyl)-2,8-diazaspiro[4.5]decan-1-one]
> 50 | O=C(c1ccccc1)N1CCC2(CC1)CCN(Cc1ccc(F)cc1F)C2=O [Compound 43, 8-benzoyl-2-(2,4-difluorobenzyl)-2,8-diazaspiro[4.5]decan-1-one]
43 | O=C(c1ccccc1)N1CCC2(CC1)CCN(Cc1c(F)cccc1Cl)C2=O [Compound 45, 8-benzoyl-2-(2-chloro-6-fluorobenzyl)-2,8-diazaspiro[4.5]decan-1-one]
> 50 | O=C(c1ccccc1)N1CCC2(CC1)CCN(Cc1cc(Cl)ccc1F)C2=O [Compound 47, 8-benzoyl-2-(5-chloro-2-fluorobenzyl)-2,8-diazaspiro[4.5]decan-1-one]
8 | N#Cc1ccc(CN2CCC3(CCN(C(=O)c4ccccc4)CC3)C2=O)c(F)c1 [Compound 48, 4-((8-benzoyl-1-oxo-2,8-diazaspiro[4.5]decan-2-yl)methyl)-3-fluorobenzonitrile]

SMILES | inhibition at 10 µM [%]
CN1CCC2(CC1)CCN(Cc1ccccc1)C2=O [Compound 21, 2-benzyl-8-methyl-2,8-diazaspiro[4.5]decan-1-one] | 5
